Experimental data published in patent US20250221936A1, “ENGINEERED HEMICHANNELS, ENGINEERED VESICLES, AND USES THEREOF” (VIRGINIA TECH INTELLECTUAL PROPERTIES, INC., priority 2018, published 2025).
“Also recorded” adds a separate entry of the source. Like-named read-outs stand apart in the source and are kept apart here.

Legend:
implants = assay: Inflammatory infiltrate at implants, myeloperoxidase stain; type: in vivo; conditions: 24 hour time point
Text: In attempting to quantify the neutrophil infiltrate using a myeloperoxidase stain, the inventors observed that some of the cells stained darker than others. Upon further investigation, these cells were not neutrophils as but rather were macrophages.

cerebral lesion = conditions: 100 μM in 2% collagen within HFM; cited from earlier work
[1] = test system: ARPE19 cell (immortalized human RPE cells) monolayers; conditions: pre-treatment, cited from earlier work
C6 glioma cell line = conditions: cited from earlier work
[2] = test system: chronic, slow healing skin wounds; conditions: diabetic foot ulcers and venous leg ulcers; cited from earlier work
cancer stem cells CSCs = assay: Cancer stem cell survival; type: cell-based
Text: In another example, JM peptides can selectively target cancer stem cells CSCs. JM2 specific interaction with microtubules concomitantly with a loss of Cx43/microtubule complexing and a decrease in cell-cell communication in CSCs derived from patient tumors was confirmed. […] Current research includes the development of JM2-loaded biodegradable nanoparticles for JM2 sustained delivery in preparation for future clinical trials. In sum, the Cx43 mimetic peptide JM2 represents a novel and potent therapeutic opportunity to target chemoresistant CSCs in cancer treatment. This was described in (Lamouille et al., targeting glioblastoma cancer stem cells with a novel Connexin43 mimetic peptide [abstract]. In: Proceedings of the American Association for Cancer Research Annual Meeting 2017; 2017 Apr. 1-5; Washington, DC. Philadelphia (PA): AACR; Cancer Res 2017;77 (13 Suppl): Abstract nr 4765. doi: 10.1158/1538-7445.AM2017-4765), which is incorporated by reference. Further results can indicate that cancer stem cells derived from other cancers respond similarly to JM peptides. […]

Cx43-HeLa = type: cell-based
Description: The first tests of JM1 and JM2 were performed and the experiments centered on the basic cell biology of the peptides.

Cx43 hemichannel = molecular target: T1, Cx43 hemichannel (Homo sapiens, UniProt P17302); conditions: 50 μM for 2 hrs; cited from earlier work
T1 construct: expressed in transfected cells; host or cells: HeLa (Cx43-HeLa)
T1 sequence (P17302 2-382 limits assumed): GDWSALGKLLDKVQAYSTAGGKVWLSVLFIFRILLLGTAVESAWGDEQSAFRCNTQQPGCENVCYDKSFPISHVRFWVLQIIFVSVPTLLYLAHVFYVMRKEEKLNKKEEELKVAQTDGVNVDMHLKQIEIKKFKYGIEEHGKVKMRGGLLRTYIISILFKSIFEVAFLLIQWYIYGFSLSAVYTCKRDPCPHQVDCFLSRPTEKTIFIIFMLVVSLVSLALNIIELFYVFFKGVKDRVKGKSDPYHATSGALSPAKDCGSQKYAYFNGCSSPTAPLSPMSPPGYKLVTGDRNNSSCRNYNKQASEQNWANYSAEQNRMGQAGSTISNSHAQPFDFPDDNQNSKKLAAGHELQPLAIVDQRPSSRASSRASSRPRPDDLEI

Row | Sequence | type of inflammatory infiltrate (implants) | density of GFAP-positive astrocytes (cerebral lesion) | VEGF-induced deterioration of TER [1] | VEGF-induced deterioration of TER ([1]; listed as ACTI) | adhesive properties (C6 glioma cell line) | morphology (C6 glioma cell line) | healing of skin wounds [2] | viability and self-renewal of colon cancer stem cells (cancer stem cells CSCs) | toxicity (cell death) (Cx43-HeLa) | confluence (Cx43-HeLa; 24 hours) | hemichannel activity (Cx43 hemichannel)
1 | RQPKIWFPNRRKPWKKRPRPDDLEI [alpha CT1] | the primary inflammatory infiltrate was macrophages | much lower density of GFAP-positive astrocytes | prevent VEGF-induced deterioration of TER | blocked by pre-treating the cells with the ACTI peptide | did not change in response to peptide treatment | altered morphology | high level of efficacy in promoting the healing of two types of chronic, slow healing skin wounds; also recorded: increased the healing rate of slow-healing skin wounds | – | – | – | –
2 | VFFKGVKDRVKGRSD [JM2] | – | – | – | – | – | – | – | effectively reduced the viability and self-renewal of cancer stem cells from patients with colon cancer | no obvious toxicity | more confluent than control cells | significantly reduced hemichannel activity
